We go through 4 compounds from patent US12234212B2, “Peptide conjugates of microtubule-targeting agents as therapeutics” (Cybrexa 3, Inc., priority 2019, dated 2025).

Series [1] concerns HCT116. Briefly: Growth delay assay, HCT116. The class given is cell-based, human. The following applies: HCT116 cells, 96 hours after addition of drug, cell count (Hoechst). On the procedure: (§1) Cells were plated in 96 well black walled-clear bottom plates (Griener), DLD-1 WT cells at 2500 cells per well, FaDu, and HeLa cells at 5000 cells per well, and HCT116 at 3000 cells per well, in growth media containing […]. Cells were allowed to adhere at room temperature for 60 minutes before returning to a 37 C, 5% CO2 incubator. After 24 hours, media was removed and replaced with fresh growth media containing various drug concentrations. Each drug concentration was added in triplicate. Non-drug treated controls contained growth media only. Cells were returned to the incubator. Ninety-six hours after addition of drug, cells were fixed with […] for 20 minutes and stained with Hoechst at 1 μg/mL. The plates were imaged on a Cytation 5 auto imager (BioTek) and cells were counted using CellProfiler (http://cellprofiler.org). The percent cell growth delay was calculated and data plotted using GraphPad Prism

In series [2] the test system is HeLa cells. Nature of the series: Growth delay assay, HeLa. The class given is cell-based. The following applies: 96 hours after addition of drug, cell count (Hoechst). How it is done: as §1
The subject of series [3] is DLD-1 WT cells. Briefly: Growth delay assay, DLD-1. The class given is cell-based. Conditions: DLD-1 cells, 96 hours after addition of drug, cell count (Hoechst). On the procedure: as §1
Series [4] has as its system FaDu. Briefly: Growth delay assay, FaDu. The series is classed as cell-based. Conditions: FaDu cells, 96 hours after addition of drug, cell count (Hoechst). How it is done:
as §1

Series [5] relates to nude mice bearing HCT116 colorectal flank tumors. Briefly: Mouse colorectal cancer model, Kaplan-Meier survival. The class given is in vivo. Conditions: IP, QDX4; DM4 0.42 μmole/kg; Compound 5 0.21-0.42 μmole/kg; post-dosing period. On the procedure:
Six-week-old female athymic nude Foxn^nu mice were obtained from Taconic Labs (Cat #NCRNU-F) and were housed 5 per cage on Alpha-Dri bedding in a disposable caging system. Human HCT116 cells derived from colorectal carcinoma were diluted 1:1 in Phenol Red-free Matrigel and subcutaneously implanted into the left flank of each mouse at a density of 2.5×10^6 cells in 100 μL. When xenografts reached a mean volume of 100-200 mm^3, mice were randomized into groups and treated as detailed in the table below. Mice were administered intraperitoneal (IP) doses of vehicle or 0.21, 0.29, 0.35, 0.42 μmole/kg Compound 5 (equivalent to 1.1, 1.4, 1.7, or 2 mg/kg Compound 5) or 0.42 μmole/kg unconjugated DM4 (equivalent to 0.33 mg/kg unconjugated DM4). Doses were prepared by diluting 0.1 mg/μL DMSO stocks in 5% mannitol in citrate buffer and were administered QDX4 with a two day interval between the second and third doses, at a volume of 12 mL/kg (300 μL per 25 g mouse). Xenograft tumors were measured by calipers and volume was calculated using the equation for ellipsoid volume: Volume=π/6×(length)×(width)^2. Body weight of animals was measured at the same time as tumor volume assessment. Animals were removed from the study due to death, tumor size exceeding 2000 mm^3 or loss of >20% body weight. Kaplan-Meier analysis was used to evaluate survival rate based on death or removal from study.

Series [6] has as its system T1, Biotin-labeled human tubulin derived from HeLa cells (β-tubulin).
T1 construct: fused on or other part: Biotin label, used for capture on a streptavidin sensor chip
Briefly: Kinetic analysis of conjugate binding (Biacore surface plasmon resonance). Conditions: Biacore S200, 25° C., immobilized tubulin; read-out: KD (affinity constant, steady state) for β-tubulin. On the procedure:
Binding experiments were performed using a Biacore S200 instrument. A Series S sensor chip with pre-immobilized streptavidin was conditioned with 1 M NaCl in 50 mM NaOH. Biotin-labeled human tubulin derived from HeLa cells was immobilized to the sensor chip at a concentration of 125 μg/mL in HBS-P+ buffer at a flow rate of 10 μl/min. A final 3000 RU (response units) of protein was directly immobilized to the chip. After tubulin immobilization, the sensor chip was washed with 50% isopropanol, 50 mM NaOH and 1 M NaCl and subsequently allowed to equilibrate in assay buffer for 4 hours. A streptavidin-biotin capture blank (reference FC) was used to monitor non-specific binding.
To collect kinetic binding data, Compound 5 diluted in assay buffer was injected over the flow cells at concentrations ranging from 100 μM to 0.048 μM and 50 μM to 0.024 μM, at a flow rate of 60 μL/minute and a temperature of 25° C. The complex was allowed to dissociate for 60 seconds. Binding of compound to tubulin was monitored in real time to obtain on (Ka) and off (Koff) rates. The affinity constant (KD) was calculated by steady state kinetics.
(Surface plasmon resonance follows binding to a sensor surface in real time, without labels.)

Take `COc1cc2cc(c1Cl)N(C)C(=O)C[C@H](OC(=O)[C@H](C)N(C)C(=O)CCSSC[C@H](NC(=O)[C@H](Cc1c[nH]c3ccccc13)NC(=O)[C@H](CC(C)C)NC(=O)[C@H](CC(C)C)NC(=O)[C@H](CC(=O)O)NC(=O)[C@H](CC(C)C)NC(=O)[C@H](CC(C)C)NC(=O)[C@H](CC(C)C)NC(=O)[C@@H](NC(=O)[C@H](CC(=O)O)NC(=O)[C@@H](NC(=O)[C@@H]1CCCN1C(=O)[C@H](Cc1ccccc1)NC(=O)[C@H](CC(C)C)NC(=O)[C@H](CC(C)C)NC(=O)[C@H](CC(=O)O)NC(=O)[C@H](CC(C)C)NC(=O)[C@H](Cc1ccc(O)cc1)NC(=O)[C@H](C)NC(=O)[C@H](CCCNC(=N)N)NC(=O)[C@H](Cc1c[nH]c3ccccc13)NC(=O)[C@@H]1CCCN1C(=O)[C@H](CC(N)=O)NC(=O)[C@H](CCC(N)=O)NC(=O)[C@H](CC(=O)O)NC(=O)[C@H](CC(=O)O)NC(=O)[C@H](C)N)[C@@H](C)O)[C@@H](C)O)C(=O)NCC(=O)O)[C@]1(C)O[C@H]1[C@H](C)[C@@H]1C[C@@](O)(NC(=O)O1)[C@H](OC)/C=C/C=C(\C)C2` [Compound 1]: the IC50 (in general, the concentration that inhibits the measured activity by half) in series [1] stood at 21.8 nM; in series [2] it was 7.4 nM; in series [3] it was 60.5 nM; in series [4], 10.4 nM.

As to `COc1cc2cc(c1Cl)N(C)C(=O)C[C@H](OC(=O)[C@H](C)N(C)C(=O)CCC(C)(C)SSC[C@H](NC(=O)[C@H](Cc1c[nH]c3ccccc13)NC(=O)[C@H](CC(C)C)NC(=O)[C@H](CC(C)C)NC(=O)[C@H](CC(=O)O)NC(=O)[C@H](CC(C)C)NC(=O)[C@H](CC(C)C)NC(=O)[C@H](CC(C)C)NC(=O)[C@@H](NC(=O)[C@H](CC(=O)O)NC(=O)[C@@H](NC(=O)[C@@H]1CCCN1C(=O)[C@H](Cc1ccccc1)NC(=O)[C@H](CC(C)C)NC(=O)[C@H](CC(C)C)NC(=O)[C@H](CC(=O)O)NC(=O)[C@H](CC(C)C)NC(=O)[C@H](Cc1ccc(O)cc1)NC(=O)[C@H](C)NC(=O)[C@H](CCCNC(=N)N)NC(=O)[C@H](Cc1c[nH]c3ccccc13)NC(=O)[C@@H]1CCCN1C(=O)[C@H](CC(N)=O)NC(=O)[C@H](CCC(N)=O)NC(=O)[C@H](CC(=O)O)NC(=O)[C@H](CC(=O)O)NC(=O)[C@H](C)N)[C@@H](C)O)[C@@H](C)O)C(=O)NCC(=O)O)[C@]1(C)O[C@H]1[C@H](C)[C@@H]1C[C@@](O)(NC(=O)O1)[C@H](OC)/C=C/C=C(\C)C2` [Compound 5], the “survival / systemic toxicity (Kaplan-Meier)” value in series [5] is “safely delivers amounts of DM4 in vivo”.

With `COc1cc2cc(c1Cl)N(C)C(=O)C[C@H](OC(=O)[C@H](C)N(C)C(=O)CCS)C1(C)O[C@H]1[C@H](C)[C@@H]1C[C@@](O)(NC(=O)O1)[C@H](OC)/C=C/C=C(\C)C2` (stereo partly drawn) [R^2SH-1, [(1S,2R,3S,6S,16E,18E,20R,21S)-11-chloro-21-hydroxy-12,20-dimethoxy-2,5,9,16-tetramethyl-8,23-dioxo-4,24-dioxa-9,22-diazatetracyclo[19.3.1.110,14.03,5]hexacosa-10(26),11,13,16,18-pentaen-6-yl] (2S)-2-[methyl(3-sulfanylpropanoyl)amino]propanoate], the IC50 in series [1] (Homo sapiens, HCT-116) is 4.3 nM; in series [2] (Homo sapiens), 2.6 nM; in series [3] (Homo sapiens), 9.8 nM; in series [4] (Homo sapiens), 2.8 nM.

Take `COc1cc2cc(c1Cl)N(C)C(=O)C[C@H](OC(=O)[C@H](C)N(C)C(=O)CCC(C)(C)S)C1(C)O[C@H]1[C@H](C)[C@@H]1C[C@@](O)(NC(=O)O1)[C@H](OC)/C=C/C=C(\C)C2` (stereo partly drawn) [R^2SH-2, [(1S,2R,3S,6S,16E,18E,20R,21S)-11-chloro-21-hydroxy-12,20-dimethoxy-2,5,9,16-tetramethyl-8,23-dioxo-4,24-dioxa-9,22-diazatetracyclo[19.3.1.110,14.03,5]hexacosa-10,12,14(26),16,18-pentaen-6-yl] (2S)-2-[methyl-(4-methyl-4-sulfanyl-pentanoyl)amino]propanoate]: the IC50 in series [1] (Homo sapiens, HCT-116) came out at 0.2 nM; in series [2] (Homo sapiens), 0.02 nM; in series [3] (Homo sapiens) it was 0.45 nM; in series [4] (Homo sapiens) it was 0.13 nM. In addition, the “survival / systemic toxicity (Kaplan-Meier)” value in series [5] is given as “spontaneous death of half of the DM4 group of animals”. Further, the equilibrium dissociation constant (Kd) – broadly, a measure of binding affinity in units of concentration – in series [6] came to 3550 nM.
